Assay results as given in patent US4780281A, “Method for assay of peroxidase enzyme or reducing substrate activity” (Wayne State University, priority 1985, dated 1988).

T1: Prostaglandin H Synthase (Ovis aries, UniProt P05979)
T1 sequence (P05979 25-600): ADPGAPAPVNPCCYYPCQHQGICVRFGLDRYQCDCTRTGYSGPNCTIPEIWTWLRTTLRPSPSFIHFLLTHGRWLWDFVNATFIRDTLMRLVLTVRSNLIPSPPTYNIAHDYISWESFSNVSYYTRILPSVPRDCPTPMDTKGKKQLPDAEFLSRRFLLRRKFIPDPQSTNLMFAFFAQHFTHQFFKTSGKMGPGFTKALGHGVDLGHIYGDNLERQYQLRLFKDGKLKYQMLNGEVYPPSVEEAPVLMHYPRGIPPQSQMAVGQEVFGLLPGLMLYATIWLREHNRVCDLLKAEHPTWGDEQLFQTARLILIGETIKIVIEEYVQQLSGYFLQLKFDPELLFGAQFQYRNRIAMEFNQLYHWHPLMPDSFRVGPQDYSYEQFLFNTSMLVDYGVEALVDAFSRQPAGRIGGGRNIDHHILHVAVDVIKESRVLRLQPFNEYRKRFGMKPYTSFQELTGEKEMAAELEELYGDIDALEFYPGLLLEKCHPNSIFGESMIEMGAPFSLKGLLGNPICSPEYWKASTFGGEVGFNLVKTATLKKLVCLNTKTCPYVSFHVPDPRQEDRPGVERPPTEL

T2: Horseradish peroxidase (HRP) (Armoracia rusticana, UniProt P00433)
T2 construct: purchased Sigma Chemical Corporation Type VI
T2 sequence (P00433 31-338 limits assumed): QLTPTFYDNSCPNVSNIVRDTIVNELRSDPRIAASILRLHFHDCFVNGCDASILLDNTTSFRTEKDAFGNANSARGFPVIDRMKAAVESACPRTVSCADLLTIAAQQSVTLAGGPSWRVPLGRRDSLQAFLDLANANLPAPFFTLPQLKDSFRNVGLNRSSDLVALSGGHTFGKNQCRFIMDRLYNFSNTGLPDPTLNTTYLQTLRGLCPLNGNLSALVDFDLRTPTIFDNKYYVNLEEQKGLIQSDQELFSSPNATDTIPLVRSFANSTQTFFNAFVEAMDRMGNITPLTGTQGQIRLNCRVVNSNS

B1: HRP (Armoracia rusticana) (protein)
chain: T2 sequence (P00433 31-338 limits assumed)
notes: purchased Sigma Chemical Corporation Type VI

substrate: OOCCC/C=C/c1ccccc1; assay: Spectrophotometric assay of Chance & Maehly for guaiacol oxidation; type: biochemical, horseradish; settings: other: estimated
Description: Apparent Km values for reducing substrates and enzymatic turnover numbers are readily determined by the steady-state kinetic assay.

Molecule | Km
B1 | 18 µM

target: T1, Prostaglandin H Synthase; assay: Reducing substrate efficiency for PPHP reduction, conditions as for Table 1; type: biochemical; settings: not given

Molecule | reducing substrate for PPHP reduction by prostaglandin H synthase
OC1C=Cc2c(cc3ccc4cccc5ccc2c3c45)C1O (centres unmarked) [7,8-dihydroxy-7,8-dihydrobenzo[a]pyrene] | not reducing substrates
c1ccc(-c2oc(-c3ccccc3)c3ccccc23)cc1 [DPBF, 1,3-diphenylisobenzofuran] | not reducing substrates
c1ccc2c(c1)cc1ccc3cccc4ccc2c1c34 [benzo[a]yrene] | not reducing substrates

same assay, conditions: Prostaglandin H synthase, under the conditions for Table 1

Molecule | Index of Efficiency of Reducing Substrates
Cc1c(CC(=O)O)c2cc(O)ccc2n1C(=O)c1ccc(Cl)cc1 [5-Hydroxy-indomethacin] | .34
CC(=O)Oc1ccccc1C(=O)O [Aspirin] | .04
O=C(O)Cc1ccccc1Nc1c(Cl)cccc1Cl [Diclofenac] | .50
CNC[C@H](O)c1ccc(O)c(O)c1 [Epinephrin, d,1-epinephrine] | .92
O=C(O)c1ccccc1Nc1cccc(C(F)(F)F)c1 [Flufenamate] | .68
CC(C(=O)O)c1ccc(-c2ccccc2)c(F)c1 (centres unmarked) [Flurbiprofen] | .12
CC(C)Cc1ccc(C(C)C(=O)O)cc1 (centres unmarked) [Ibuprofen] | .12
Cc1cc(NC(=O)C2=C(O)c3ccccc3S(=O)(=O)N2C)no1 [Isoxicam] | .25
COc1ccc2c(c1)c(C(C)C(=O)O)c(C)n2Cc1ccc(SC)cc1 (centres unmarked) [MK-410] | .26
CC(C)(C)c1cc(I)c(O)c(CN)c1 [MK-447] | .72
Cc1ccc(Cl)c(Nc2ccccc2C(=O)O)c1Cl [Meclofenamate] | .35
CSc1ccccc1 [Methylphenyl Sulfide] | .50
CCCCC1C(=O)NN(c2ccccc2)C1=O (centres unmarked) [Monophenylbutazone] | .23
CC1=NN(CCOc2ccc3ccccc3c2)C(=O)C1 [Nafazatrom] | .80
CCCCC1C(=O)N(c2ccccc2)N(c2ccc(O)cc2)C1=O (centres unmarked) [Oxyphenylbutazone] | .71
CCCCC1C(=O)N(c2ccccc2)N(c2ccccc2)C1=O [Phenylbutazone] | .23
O=C(O)c1ccccc1O [Salicylic Acid] | .06
CSc1ccc(/C=C2/C(C)=C(CC(=O)O)c3cc(F)ccc32)cc1 [Sulindac Sulfide] | .96

target: T2, Horseradish peroxidase (HRP); assay: Reducing substrate specificity assay (HRP-catalysed reduction of PPHP to PPA, HPLC); type: biochemical; settings: 60 nM HRP, 200 microM reducing substrate, 100 microM PPHP, 0.1 M potassium citrate pH 5.5, 0.2 mM Tween-20, 25° C., 6 minutes, triplicate
Description: Incubations were performed in triplicate with a 25° C. shaker bath in 16×150 mm disposable glass test tubes. 60 nM HRP was incubated at 25° C. in 0.1 M potassium citrate buffer, […] containing 0.2 mM Tween 20, with 100 microM PPHP and 200 microM potential reducing substrate. The index value is defined as, Index=concentration PPA/(concentration PPA+concentration PPHP). Most reducing substrates were prepared daily as 8 mM stocks in either water, methanol, or methanol:water (1:1 v/v). DPBF was dissolved in acetone. Uric acid was dissolved in DMSO. Epinephrine required titration with dilute hydrochloric acid prior to dissolution in methanol. Indoleacetic acid, tryptophan, cysteine, and methionine were titrated with dilute potassium hydroxide prior to dissolution in methanol:water (1:1 v/v).
For the data in Table 1 hereinafter, reducing substrates (50 microliters of 8 mM stocks--see Table 1 for preparation) were transferred into 1.9 ml of 0.1 M potassium citrate buffer, pH 5.5, containing 0.2 mM Tween-20 and allowed to thermally equilibrate for 10 minutes. HRP (24 microl of a 5 microM stock) was added to each trial and preincubated for three minutes prior to the addition of PPHP (25 microl of 8 mM stock in methanol). Incubations were stopped at 6 minutes by pouring mixtures onto Baker SPE System columns (3 ml octyldecylsilyl, from J. T. Baker & Co.). The columns were prepared prior to use by passing 3×3 ml aliquots of water through the columns with the Baker SPE vacuum system. At the stop time, an individual trial was poured onto the column and aspirated to near dryness. Each individual trial was set aside until the reminder of the trials were treated in the same manner. After all incubation trials were partitioned onto the SPE columns, each individual incubation tube was washed with 2 ml of 0.2 mM Tween 20 in distilled water and poured onto the corresponding SPE column. This Tween 20/water wash was aspirated to near dryness with vacuum. Analytes were eluted into 12×76 mm disposable glass test tubes with 2×1 ml aliquots of methanol (HPLC grade, Fisher Scientific Co.). The sample collection rack for the Baker 10 SPE System was modified to accommodate these 12 mm diameter tubes. The SPE columns were aspirated dry at this point and discarded. An internal chromatographic standard of p-nitrobenzyl alcohol (25 microl of 8 mM stock solution in methanol) was added to each methanol eluent, mixed by vortexing, and then clarified by filtration through a 0.45 micron nylon Swinney type filter (Rainin Instrument Corp.). The filtered eluents were used directly for chromatographic analysis.
The Initial incubation conditions were 0.1 M potassium citrate buffer, pH 5.5, with 0.2 mM Tween 20, 200 microM reducing substrate, 60 nM HRP and […] PPHP (structure 1).
Quantitation was determined by adding an internal standard (p-nitrobenzyl alcohol: annotated as I.S. on chromatograms) and ratioing peak areas. Chromatograms are 40 microliters injections onto a 5 micron Zorbax octylsilyl reverse-phase column (DuPont Instrument Corp.) with an isocratic elution mobile of 56% v/v methanol in water at 2 ml per min. U.V. monitoring was with a fixed 254 nm detector (Varian 5000, Varian Instrument Corp.). Vertical numbers are associated with peak retention times in minutes (the integrator used was a Vista 402 System, Varian Instruments).
Analyte concentrations were calculated by an internal standard method of calculation. This required individual incubation chromatograms to be compared to a calibration chromatogram generated by chromatographing a 40 microliter sample aliquot of a solution of PPHP as described under calculations.

Molecule | Index = concentration PPA/(concentration PPA+concentration PPHP)
O=C(O)CCCCC1CCSS1 (racemic) [Lipoic Acid, d,1-thiotic acid] | 0.06 ± 0.01
Nc1ccccc1 [Aniline, aniline] | 0.97 ± 0.01
O=C1O[C@H]([C@@H](O)CO)C(O)=C1O [Ascorbic Acid, 1-ascorbic acid] | 0.50 ± 0.00
COc1ccc(O)c(C(C)(C)C)c1 [BHA, butylated hydroxyanisole] | 0.56 ± 0.01
Cc1cc(C(C)(C)C)c(O)c(C(C)(C)C)c1 [BHT, butylated hydroxytoluene] | 0.19 ± 0.03
N[C@@H](CS)C(=O)O [Cysteine, 1-cysteine] | 0.06 ± 0.01
c1ccc(-c2oc(-c3ccccc3)c3ccccc23)cc1 [DPBF, 1,3-diphenylisobenzofuran] | 0.06 ± 0.01
CCN(CC)C(=S)S [Diethyldithiocarbamate, diethyldithiocarbamic acid] | 0.72 ± 0.02
CNC[C@H](O)c1ccc(O)c(O)c1 [Epinephrin, d,1-epinephrine] | 0.39 ± 0.01
N[C@@H](CCC(=O)N[C@@H](CS)C(=O)NCC(=O)O)C(=O)O [Glutathione, reduced glutathione] | 0.07 ± 0.01
COc1ccccc1O [Guaniacol, guaiacol] | 0.97 ± 0.01
Oc1ccc(O)cc1 [Hydroquinone, hydroquinone] | 0.97 ± 0.01
O=C(O)Cc1c[nH]c2ccccc12 [Indoleacetic Acid, indole-3-acetic acid] | 0.14 ± 0.01
[I-].[K+] [Iodide, potassium iodide] | 0.97 ± 0.02
CSCC[C@H](N)C(=O)O [Methionine, d,1-methionine] | 0.05 ± 0.01
NC(=O)C1=CN([C@@H]2O[C@H](COP(=O)(O)OP(=O)(O)OC[C@H]3O[C@@H](n4cnc5c(N)ncnc54)[C@H](O)[C@@H]3O)[C@@H](O)[C@H]2O)C=CC1 [NADH, reduced nicotinamide adenine dinucleotide] | 0.05 ± 0.00
NC(=O)C1=CN([C@@H]2O[C@H](COP(=O)(O)OP(=O)(O)OC[C@H]3O[C@@H](n4cnc5c(N)ncnc54)[C@H](OP(=O)(O)O)[C@@H]3O)[C@@H](O)[C@H]2O)C=CC1 [NADPH, reduced nicotinamide adenine dinucleotide phosphate] | 0.06 ± 0.01
N[C@@H](Cc1c[nH]c2ccccc12)C(=O)O [Tryptophan, 1-tryptophan] | 0.13 ± 0.04
O=c1[nH]c(=O)c2[nH]c(=O)[nH]c2[nH]1 [Uric Acid, uric acid] | 0.96 ± 0.00

same assay, conditions: 200 microM reducing substrate, 60 nM HRP, pH 5.5

Molecule | reducing substrate quality for HRP (FIG. 1)
COc1ccc(O)c(C(C)(C)C)c1 [BHA, butylated hydroxyanisole] | moderate
N[C@@H](Cc1c[nH]c2ccccc12)C(=O)O [Tryptophan, 1-tryptophan] | poor

substrate: Oc1ccccc1; assay: Steady-state kinetic assay (PPA production, SPE/HPLC); type: biochemical, horseradish; settings: other: 2.5 nM HRP, 100 microM PPHP, pH 5.5, 4 minutes
Description: The incubations were terminated at 2, 4, and 8 minutes by pouring the incubations onto SPE columns as described in Methods. […] The data points are the average of triplicates. […] All buffers contained 0.2 mM Tween-20. Incubations were stopped at 4 minutes by pouring onto SPE columns as described in Methods. Each data point is the average of triplicates. […] Incubations were stopped at 4 minutes by pouring on SPE columns as described in Methods. PPA concentrations were converted into velocities by dividing by the incubation time and assuming linear steady-state velocities over the first 8 minutes (see FIG. 3). Five replicates of each phenol concentration were assayed. Km and Vmax were determined by linear regression analysis upon the non-averaged data points.
We designed the assays with 4 minute termination times converting either the concentration of PPHP or PPA into velocities.

Molecule | Km
B1 | 252 µM
